The values below come from US20120220603A1, “SUBSTITUTED HETEROCYCLIC DERIVATIVES FOR THE TREATMENT OF PAIN AND EPILEPSY” (ZALICUS PHARMACEUTICALS LTD., priority 2009, published 2012).

Each structure is given as a SMILES string.

In data set [1] the target is T1, human Nav1.5 channel (Homo sapiens, UniProt Q14524).
T1 construct: expressed in transfected cells; host or cells: HEK cells
The experiment in a line: NaV1.5 sodium channel screening assay, PatchXpress automated electrophysiology, cardiac action potential waveform 1 Hz. The conditions noted are these: cardiac action potential waveform at 1 Hz; HEK cells; read-out: HNAv 1.5 Cardiac AP 1 Hz IC50. It counts as cell-based. The procedure: Inhibition of the TTX-resistant NaV1.5 sodium channel, a key cardiac ion channel, can have profound effects on the duration and amplitude of the cardiac action potential and can result in arrhythmias and other heart malfunctions. To assess the potential cardiac liability of compounds at an early stage in the drug discovery process, a NaV1.5 sodium channel screening assay is performed on Molecular Device's PatchXpress™ automated electrophysiology platform. Under voltage-calmp conditions, NaV1.5 currents were recorded from HEK cells expressing the human Nav1.5 channel in the absence and presence of increasing concentrations of the test compound to obtain an IC50 value. The external recording solution contained (in mM): 90 TEACl, 50 NaCl, 1.8 CaCl, 1 MgCl2, 10 HEPES, 10 glucose, adjusted to pH 7.4 with TEA-OH and to 300 mOsm with sucrose (if necessary), while the internal patch pipette solution contained (in mM): 129 CsF, 2 MgCl2, 11 EGTA, 10 HEPES, 3 Na2ATP adjusted to pH 7.2 with CsOH and to 290 mOsm with sucrose (if necessary). NaV1.5 channel currents were evoked using a cardiac action potential waveform at 1 Hz, digitized at 31.25 kHz and low-pass filtered at 12 kHz.

Data set [2] can be described thus: Mouse rotarod assay (minimal muscular or neurological impairment). It counts as in vivo. The conditions noted are these: mouse, in vivo, mice. The procedure:
(§1) To assess a compound's undesirable side effects (toxicity), animals were monitored for overt signs of impaired neurological or muscular function. In mice, the rotarod procedure (Dunham and Miya, J. Am. Pharmacol. Assoc. 46:208-209 (1957)) is used to disclose minimal muscular or neurological impairment (MMI). When a mouse is placed on a rod that rotates at a speed of 6 rpm, the animal can maintain its equilibrium for long periods of time. The animal is considered toxic if it falls off this rotating rod three times during a 1-min period.

Data set [3] concerns mice on rotarod. The data set is described as above. It counts as in vivo. Here is the method:
as §1

Data set [4] has as its target T2, CaV3.2 T-type Ca2+ channels expressed in HEK cells (Homo sapiens, UniProt O95180).
T2 construct: expressed in transfected cells; host or cells: HEK cells
The experiment in a line: CaV3.2 voltage-clamp electrophysiological assay (fast and slow inactivation). It counts as cell-based. From the text:
Prior to recording currents from CaV3.2 T-type Ca^2+ channels expressed in HEK cells, the culture media was replaced with extracellular solution (ECS) containing (in mM): 142 CsCl, 10 D-glucose, 2 CaCl2, 1 MgCl2, 10 HEPES, pH adjusted to 7.4 with CsOH. Borosilicate glass patch pipettes, pulled on a P-97 micropipette puller (Sutter Instruments, Novato, Calif.) with typical resistances of 2-4 MW, were backfilled with intracellular solution containing (in mM): 126.5 Cs-methanesulphonate, 2 MgCl2, 10 HEPES, 11 EGTA, 2 Na-ATP, pH adjusted to 7.3 CsOH. […] were recorded in the whole-cell configuration at room temperature (˜21° C.) using an Axopatch 200B (Molecular Devices, Sunnyvale, Calif.) patch-clamp amplifier. Recordings were low-pass filtered at 1 kHz (−3 dB 4-pole Bessel filter), digitized at 2 kHz with a Digidata 1322A interface (Molecular Devices), and acquired using pClamp 9.2 (Molecular Devices). No leak subtraction was used. Test compounds, prepared as 30 mM stock solutions in DMSO and diluted in extracellular buffer, were applied through a gravity driven multi-barrelled array of capillaries (24 gauge) connected to reservoirs controlled by solenoid valves. The effects of compounds on CaV3.2 slow and fast inactivation were evaluated using four different voltage protocols. The voltage dependence of fast and slow channel inactivation was examined using a two pulse protocol. Data were analyzed and fitted using OriginPro v.7.5 (OriginLab, Northampton, Mass.) software.

T2 sequence (O95180 whole entry): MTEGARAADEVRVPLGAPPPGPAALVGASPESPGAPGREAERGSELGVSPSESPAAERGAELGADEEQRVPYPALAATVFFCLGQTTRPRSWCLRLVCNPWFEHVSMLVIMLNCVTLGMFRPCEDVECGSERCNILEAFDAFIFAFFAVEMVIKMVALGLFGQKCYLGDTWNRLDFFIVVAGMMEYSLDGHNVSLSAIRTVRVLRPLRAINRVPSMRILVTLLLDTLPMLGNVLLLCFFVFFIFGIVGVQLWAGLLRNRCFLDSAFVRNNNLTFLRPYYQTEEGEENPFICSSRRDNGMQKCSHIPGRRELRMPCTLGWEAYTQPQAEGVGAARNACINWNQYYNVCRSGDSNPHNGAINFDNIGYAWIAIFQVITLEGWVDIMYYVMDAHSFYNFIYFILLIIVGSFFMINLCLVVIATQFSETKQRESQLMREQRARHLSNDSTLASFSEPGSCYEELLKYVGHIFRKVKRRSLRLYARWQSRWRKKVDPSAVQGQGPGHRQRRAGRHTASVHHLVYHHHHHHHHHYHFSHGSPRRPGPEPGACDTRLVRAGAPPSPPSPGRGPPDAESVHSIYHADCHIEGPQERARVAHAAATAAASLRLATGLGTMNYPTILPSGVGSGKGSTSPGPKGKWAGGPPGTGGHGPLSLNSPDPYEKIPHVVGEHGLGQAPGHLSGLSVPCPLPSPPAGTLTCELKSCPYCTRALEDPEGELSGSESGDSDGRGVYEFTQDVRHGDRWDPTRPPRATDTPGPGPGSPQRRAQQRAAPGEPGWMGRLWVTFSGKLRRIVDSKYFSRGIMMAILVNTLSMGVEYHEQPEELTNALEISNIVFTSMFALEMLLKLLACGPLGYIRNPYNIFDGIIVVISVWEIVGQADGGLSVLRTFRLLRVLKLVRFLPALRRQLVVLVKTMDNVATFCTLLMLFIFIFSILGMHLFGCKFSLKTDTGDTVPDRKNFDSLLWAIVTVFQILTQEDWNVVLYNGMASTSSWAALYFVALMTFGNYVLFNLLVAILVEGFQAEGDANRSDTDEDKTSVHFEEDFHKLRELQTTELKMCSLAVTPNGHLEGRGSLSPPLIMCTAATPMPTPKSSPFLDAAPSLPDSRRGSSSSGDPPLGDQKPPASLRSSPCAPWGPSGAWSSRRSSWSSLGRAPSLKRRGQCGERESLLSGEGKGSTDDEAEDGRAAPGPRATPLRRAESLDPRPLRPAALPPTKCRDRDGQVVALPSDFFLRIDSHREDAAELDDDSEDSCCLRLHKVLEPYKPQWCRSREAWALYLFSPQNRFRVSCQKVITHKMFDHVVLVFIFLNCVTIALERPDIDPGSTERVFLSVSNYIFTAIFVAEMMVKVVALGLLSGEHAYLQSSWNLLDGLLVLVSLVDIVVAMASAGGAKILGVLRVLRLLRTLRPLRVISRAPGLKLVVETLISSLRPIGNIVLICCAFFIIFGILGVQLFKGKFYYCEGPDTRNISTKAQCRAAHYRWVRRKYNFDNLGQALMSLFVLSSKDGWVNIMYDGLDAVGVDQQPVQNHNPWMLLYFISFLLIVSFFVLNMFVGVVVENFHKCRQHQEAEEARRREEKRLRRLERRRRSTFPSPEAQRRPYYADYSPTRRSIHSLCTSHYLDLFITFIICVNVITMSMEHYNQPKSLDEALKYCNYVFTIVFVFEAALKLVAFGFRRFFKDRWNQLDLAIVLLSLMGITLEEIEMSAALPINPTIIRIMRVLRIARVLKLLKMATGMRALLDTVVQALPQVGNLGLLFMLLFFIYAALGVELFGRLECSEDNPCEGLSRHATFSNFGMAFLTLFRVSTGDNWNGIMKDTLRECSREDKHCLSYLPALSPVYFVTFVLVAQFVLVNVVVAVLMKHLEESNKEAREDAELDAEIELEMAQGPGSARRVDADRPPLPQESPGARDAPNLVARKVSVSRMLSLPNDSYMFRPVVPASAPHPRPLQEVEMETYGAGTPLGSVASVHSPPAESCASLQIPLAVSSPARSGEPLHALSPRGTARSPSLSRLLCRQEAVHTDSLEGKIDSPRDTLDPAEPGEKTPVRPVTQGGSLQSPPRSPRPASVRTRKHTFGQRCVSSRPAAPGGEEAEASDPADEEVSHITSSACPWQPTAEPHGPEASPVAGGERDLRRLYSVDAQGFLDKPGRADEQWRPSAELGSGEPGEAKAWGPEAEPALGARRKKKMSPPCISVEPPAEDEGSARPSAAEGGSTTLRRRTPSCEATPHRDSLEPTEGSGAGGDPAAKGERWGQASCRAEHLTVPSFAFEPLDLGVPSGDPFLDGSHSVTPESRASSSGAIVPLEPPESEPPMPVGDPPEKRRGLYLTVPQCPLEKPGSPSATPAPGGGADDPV
T1 sequence (Q14524 whole entry): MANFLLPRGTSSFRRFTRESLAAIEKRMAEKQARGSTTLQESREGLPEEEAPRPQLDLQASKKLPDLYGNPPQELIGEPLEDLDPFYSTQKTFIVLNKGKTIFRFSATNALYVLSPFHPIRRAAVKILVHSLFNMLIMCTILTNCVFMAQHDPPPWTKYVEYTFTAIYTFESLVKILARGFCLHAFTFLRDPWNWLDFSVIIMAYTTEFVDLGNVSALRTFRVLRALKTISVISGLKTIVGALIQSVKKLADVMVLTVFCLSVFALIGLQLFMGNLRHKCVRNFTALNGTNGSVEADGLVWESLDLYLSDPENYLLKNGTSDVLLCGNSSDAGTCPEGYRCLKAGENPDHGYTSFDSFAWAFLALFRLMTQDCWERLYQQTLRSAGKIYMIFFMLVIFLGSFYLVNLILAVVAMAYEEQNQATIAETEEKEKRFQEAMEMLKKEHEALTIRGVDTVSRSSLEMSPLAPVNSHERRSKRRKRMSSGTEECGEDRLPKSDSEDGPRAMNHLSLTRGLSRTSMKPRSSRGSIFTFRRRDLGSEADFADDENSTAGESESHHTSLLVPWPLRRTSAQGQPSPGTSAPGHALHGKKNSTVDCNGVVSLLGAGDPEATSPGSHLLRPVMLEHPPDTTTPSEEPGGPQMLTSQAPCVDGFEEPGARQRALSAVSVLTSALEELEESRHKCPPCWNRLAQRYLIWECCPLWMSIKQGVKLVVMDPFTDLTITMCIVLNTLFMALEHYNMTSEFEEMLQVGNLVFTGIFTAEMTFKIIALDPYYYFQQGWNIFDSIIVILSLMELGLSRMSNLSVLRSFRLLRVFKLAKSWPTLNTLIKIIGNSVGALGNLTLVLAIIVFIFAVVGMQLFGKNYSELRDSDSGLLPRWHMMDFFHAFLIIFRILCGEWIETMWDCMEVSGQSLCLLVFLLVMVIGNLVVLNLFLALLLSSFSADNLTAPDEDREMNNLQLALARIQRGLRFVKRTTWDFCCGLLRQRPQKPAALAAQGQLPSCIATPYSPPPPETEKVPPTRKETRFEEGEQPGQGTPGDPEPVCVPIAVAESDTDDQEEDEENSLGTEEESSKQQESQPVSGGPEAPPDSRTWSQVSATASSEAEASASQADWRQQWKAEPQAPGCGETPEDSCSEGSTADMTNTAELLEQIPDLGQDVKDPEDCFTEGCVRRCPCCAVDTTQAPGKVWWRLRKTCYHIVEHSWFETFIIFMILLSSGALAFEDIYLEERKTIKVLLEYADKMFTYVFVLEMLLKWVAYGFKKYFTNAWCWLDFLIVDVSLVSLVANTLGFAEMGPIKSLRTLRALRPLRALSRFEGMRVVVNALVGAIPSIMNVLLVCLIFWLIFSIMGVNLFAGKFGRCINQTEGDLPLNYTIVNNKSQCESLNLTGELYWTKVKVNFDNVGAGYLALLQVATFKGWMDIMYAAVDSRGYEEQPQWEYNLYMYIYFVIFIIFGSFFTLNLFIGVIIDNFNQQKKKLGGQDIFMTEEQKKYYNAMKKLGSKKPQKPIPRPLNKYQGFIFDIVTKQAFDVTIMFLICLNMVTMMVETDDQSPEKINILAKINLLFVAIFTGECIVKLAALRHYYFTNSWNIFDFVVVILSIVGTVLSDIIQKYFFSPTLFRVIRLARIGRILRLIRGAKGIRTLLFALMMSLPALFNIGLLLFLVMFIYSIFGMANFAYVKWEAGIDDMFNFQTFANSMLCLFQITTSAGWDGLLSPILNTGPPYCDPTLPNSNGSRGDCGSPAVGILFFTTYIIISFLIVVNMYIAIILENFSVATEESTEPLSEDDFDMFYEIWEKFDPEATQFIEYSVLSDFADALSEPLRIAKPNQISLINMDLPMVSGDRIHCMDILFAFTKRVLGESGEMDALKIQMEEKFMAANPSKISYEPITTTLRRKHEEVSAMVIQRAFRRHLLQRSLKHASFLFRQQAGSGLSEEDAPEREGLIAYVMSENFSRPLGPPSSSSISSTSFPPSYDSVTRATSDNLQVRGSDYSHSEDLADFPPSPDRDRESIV

What is called IC50 is the concentration that gives 50% inhibition. Usually TD50 stands for the 50% point of the dose-response relation for the toxic effect studied. A low value points to harm at a small dose. For the molecule `O=C(CN1CCNCC1=O)Nc1cc(C(F)(F)F)cc(C(F)(F)F)c1` [Compound 1, N-(3,5-bis(trifluoromethyl)phenyl)-2-(2-oxopiperazin-1-yl)acetamide], in data set [1], the concentration for half-maximal inhibition (IC50) came to 100 µM. In addition, the TD50 in data set [2] was found to be 300 mg/kg. The “% Impaired” value in data set [3] (0.25 hr), in data set [3] (0.5 hr), in data set [3] (1 hr), in data set [3] (2 hr) and in data set [3] (4 hr) was 0% in each case.
As for `O=C1CN(CC(=O)Nc2cc(C(F)(F)F)cc(C(F)(F)F)c2)CCN1` [Compound 9, N-(3,5-bis(trifluoromethyl)phenyl)-2-(3-oxopiperazin-1-yl)acetamide], the IC50 in data set [1] stood at 80 µM. Moreover, the “% Impaired” value in data set [3] (0.25 hr), in data set [3] (0.5 hr), in data set [3] (1 hr), in data set [3] (2 hr) and in data set [3] (4 hr) was 0% in each case. Besides, the “Fraction of current recovered at 5.1 s interval” value in data set [4] (5.1 s interval) was “*0.80”. Further, the “Fraction current remaining at −40 mV” value in data set [4] (at −40 mV) is “**0.32”. Moreover, the V1/2 slow inactivation entry in data set [4] (voltage-dependence of half inactivation, HEK cells, whole-cell) is “**−83 mV”.
